# In patent US11357786B2, “Synthetic disugar hydrocarbons as natural analogs to control microbial behaviors” (Syracuse University, priority 2014, dated 2022):
# “Also recorded” adds a separate entry of the source. Like-named read-outs stand apart in the source and are kept apart here.
# What was measured:
# [1] = system: nonswarming P. aeruginosa mutant rhlA; test: Swarming motility of nonswarming rhlA mutant on soft agar (reactivation / agonist assay); type: cell-based, Pseudomonas aeruginosa; details: for Swarming motility of rhlA mutant: 85 μM in soft agar (0.5%), 24 h
# In short: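 rhlA transposon mutant of PAO1 (3 μl, OD600 0.4–0.6) inoculated on M8 soft agar (0.2% glucose, 0.5% casamino acids, 1 mM MgSO4, 0.5% agar) with test compound to find swarming agonists. Incubated 12 h at 37 °C plus 12 h at room temperature; swarm area measured by weighing paper cut-outs of imaged swarms.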
# PAO1 biofilm = test: Crystal violet dye based biofilm inhibition assay, maltose derivatives (Example 1); type: cell-based, Pseudomonas aeruginosa; details: for Inhibition of PAO1 biofilm: 110 μM, 24 h, CV assay; for IC50: CV dye based assay
# Experimental: (§1) A crystal violet (CV) assay was used to measure the amount of PAO1 biofilm formed after 24 h of bacterial inoculation. The fluorescence of green fluorescent proteins (GFP) expressed by PAO1-GFP was measured to directly quantify bacterial adhesion on polystyrene black 96 well plates with and without maltose derivatives after 2 h of bacterial inoculation. To evaluate the potential of maltose derivatives as both anti-biofilm and anti-adhesion agents, they were compared to a brominated furanone (BF8) known to inhibit biofilm formation, and two generic surfactants, sodium dodecyl sulfate (SDS) and tetra (ethylene glycol) monododecyl ether (C12EG4OH). […] P. aeruginosa strain PAO1-EGFP that constitutively producing green fluorescent protein was allowed to form biofilm on sterile steel coupons.
# Inhibitory effect of all the maltose hydrocarbons on P. aeruginosa biofilm formation was determined by crystal violet dye based biofilm inhibition assays. Overnight culture of wild type P. aeruginosa (PAO1) was sub cultured to an OD600 of 0.01 into the 95:5 M9+:Lb medium. 200 μL of the sub culture was aliquoted into the wells of 96 well polystyrene microtiter plate when it reached the OD600 of 0.1. Predetermined concentrations of the test compounds were then added to the respective wells containing sub culture. Sample plates were wrapped in GLAD Press n′ Seal® followed by incubation under stationary conditions for 24 h at 37° C. After incubation the media was discarded and the plates were washed with water and dried for 1 h at 37° C. The sample plates were stained with 200 μL of 0.1% aqueous solution of crystal violet (CV) and followed by incubation at ambient temperature for 20 min. The CV stain was then discarded and the plates were washed with water. The remaining biofilm adhered stain was re-solubilized with 200 μL of 30% acetic acid. After the stain was dissolved (15 minutes), 100 μL of the solubilized CV was transferred from each well into the corresponding wells of a new polystyrene microtiter dish. Biofilm inhibition was quantified by measuring the OD600 of each well in which a negative control lane wherein no biofilm was formed served as a background and was subtracted out. The percent inhibition was calculated by the comparison of the OD600 for biofilm grown in the absence of compound (control) versus biofilm grown in the presence of compound under identical conditions.
# (§2) Predetermined amounts maltose derivatives stock solution was added to the 200 μL bacterial culture in 96 well plate so that the final concentration of the agent reaches the desired values of 1, 5, 10, 20, 40, 85, 113, 140 μM. Biofilm inhibition and dispersion assay was carried as described previously.
# PAO1-GFP = test: microbe, parasite or virus in culture; type: cell-based, Pseudomonas aeruginosa
# Experimental: as §1
# Overnight culture of PAO1-GFP was subcultured to an OD600 of 0.01 into the 95:5 M9+:Lb medium. Subculture was allowed to reach the OD600 of 0.1 in a rotary shaker at 250 rpm and 37° C. 200 μL of the subculture was then transferred to the wells of black microtiter plate with and without (control) maltose derivatives. This black 96 well plate was then incubated in a shaker at 37° C. for 2 h. After 2 h, bacterial culture from the plate was discarded and each well was washed once with saline water (0.85 w/v % aqueous NaCl solution). Fresh 95:5 M9+:Lb medium was added to the black 96 well plate and fluorescence of the surface adhered bacteria was measured by Synergy 2 multi-mode microplate reader with Gen5 data analysis software at an excitation wavelength of 500 nm and an emission wavelength of 540 nm. Background signal from 95:5 M9+:Lb medium was eliminated from all the samples.
# 24 h old PAO1 biofilm = test: Crystal violet biofilm dispersion assay, maltose derivatives (Example 1); type: cell-based, Pseudomonas aeruginosa; details: for DC50: 24 h old biofilm, read-out: Biofilm dispersion DC50 (half-maximal dispersion)
# Experimental: Chemical dispersion of already formed biofilm is often more relevant to medical application, and more challenging than biofilm inhibition assays, for which the agents are introduced at the onset of an experiment. We screened the ability of maltose derivatives at 110 μM to disperse 24 h old biofilm.
# PAO1 was allowed to grow for 24 h at 37° C. After 24 h, bacterial culture was pipetted out and replaced with 200 μL of 110 μM maltose hydrocarbons and sterile water (control). After 1 h treatment with maltose hydrocarbons, biofilm was fixed and quantified using crystal violet dye as described above. The amount of dispersed biofilm was determined via comparison of the amount of biofilm at 24 h in the presence of maltose hydrocarbons versus the amount of biofilm in the “no compound” positive control at 24 h (wells with water treatment).
# as §2
# [2] = system: Pseudomonas aeruginosa strain PAO1-BAA-47; test: Mouse P. aeruginosa pneumonia model; type: in vivo; details: SP-A/D KO mice
# Experimental for Solubility in water: Stock solution of disaccharide hydrocarbons (DSHs). Stock solution (˜11.5 mM) of all synthesized and commercially available DSHs were prepared in autoclaved water and further sterilized by filtering through cellulose acetate syringe filter (0.2 μm pore size, GVS filter technology) into sterilized vials. The vials containing sterilized DSHs stocks were capped and stored at −20° C. and thawed prior to each use. Appropriate volume of sterile water was added to positive controls (no agents) in all assays to eliminate the effect of water. Stock solution of DβL (7), SFβL (15) and 2-ODαC (17) were prepared in sterile water and 200 proof EtOH in 90:10 ratio. For positive controls involving DβL (7), SFβL (15) and 2-ODαC (17) appropriate volumes of 90:10, H2O:EtOH was added.
molecule,measurement,setting,value
12-hydroxy decyl β-maltose [12-HODeβM],Swarming motility of rhlA mutant,[1],did not exhibit any significant activation of swarming
same,Inhibition of PAO1 biofilm,PAO1 biofilm,about 30%
same,Inhibition of PAO1 biofilm,PAO1 biofilm; listed as HODeβM,32%
same,Inhibition of PAO1-EGFP adhesion on polystyrene,"PAO1-GFP; 85 μM, 2 h",about 7%
"CCCCCCCCCCCC[N+](C)(C)C.[Cl-] [DTAC, dodecyl trimethyl ammonium chloride, reference compound]",Reactivation of swarming motility of rhlA mutant,[1]; concentration not given,did not promote or reactivate
same,Anti-biofilm activity (inhibition),PAO1 biofilm; concentration not given,did not show any anti-biofilm activities
same,Anti-biofilm activity (dispersion),24 h old PAO1 biofilm; concentration not given,did not show any anti-biofilm activities
"CC(C)CCCC(C)CCCC(C)CCO[C@@H]1O[C@H](CO)[C@@H](O[C@@H]2O[C@H](CO)[C@H](O)[C@H](O)[C@H]2O)[C@H](O)[C@H]1O (stereo partly drawn) [SFβL (15), saturated famesyl-β-lactoside]",Solubility in water,Solubility in water,poor water-solubility
same,Solubility in water,Solubility in water; listed as 15: SFβL,poor solubility in water; also recorded: not soluble in either water or in water/EtOH mixture
"O=C(c1ccccc1)c1ccc(COCCCCCCCCCCO[C@@H]2O[C@H](CO)[C@@H](O[C@H]3O[C@H](CO)[C@@H](O)[C@H](O)[C@H]3O)[C@H](O)[C@H]2O)cc1 [BPDeβM, benzophenonyl decyl β-maltoside]",Swarming motility of rhlA mutant,[1],swarming motility with without well-defined tendrils
same,IC50,PAO1 biofilm,22.5 µM
same,DC50,24 h old PAO1 biofilm,31 µM
CC1=C(Br)/C(=C/Br)OC1=O [BF8],Inhibition of PAO1 biofilm,PAO1 biofilm,about 35%
same,Inhibition of PAO1 adhesion on polystyrene,PAO1-GFP; 100 μM,showed no inhibition; also recorded: does not inhibit the adhesion
benzyl dodecyl β-maltoside [BDβM],Swarming motility of rhlA mutant,[1],swarming motility with without well-defined tendrils
same,IC50,PAO1 biofilm,27.5 µM
same,DC50,24 h old PAO1 biofilm,32 µM
"CCCCCCCCCCCCO[C@@H]1O[C@H](CO)[C@@H](O[C@H]2O[C@H](CO)[C@@H](O)[C@H](O)[C@H]2O)[C@H](O)[C@H]1O [DM, Dodecyl Maltoside]",CFU number in the lung,"[2]; 50 μl of 170 μM intratracheal 24 h after infection, sacrifice 24 h later",significantly decreased CFU number in the lung
same,"Lung inflammation (histology, H&E)",[2]; 50 μl of 170 μM intratracheal,improved the lung inflammation
